For data set [1], the system named is PBMCs. Kind of data set: IFN gamma release in CD3/CD28 stimulated PBMC cells. The class given is cell-based. The conditions noted are these: Homo sapiens, read-out: IC50 Values for Inhibition of Cytokine Release PBMCs IFNγ. Here is the method:
(§1) PBMCs from healthy subjects are separated from whole blood using a density gradient (Lymphoprep, Axis-Shield Healthcare). Cells are added to a 96 well plate pre-coated with a mixture of CD3/CD28 monoclonal antibodies (0.3 μg/mL eBioscience and 3 μg/mL BD Pharmingen respectively). Compound at the desired concentration is then added to the wells and the plate left for 3 days under normal tissue culture conditions. Supernatants are harvested and IL-2 and IFN gamma release determined by Sandwich ELISA (Duo-set, R&D System). The IC50 is determined from the dose response curve.

Data set [2] addresses T1, p38 MAPKα (Homo sapiens, UniProt Q16539).
T1 construct: purchased Invitrogen
The experiment in a line: KINOMEscan dissociation constant, p38 MAPKα. The class given is binding. The method, then:
(§2) Kinase enzyme binding activities of compounds disclosed herein may be determined using a proprietary assay which measures active site-directed competition binding to an immobilized ligand (Fabian, M. A. et al., Nature Biotechnol., 2005, 23:329-336). These assays may be conducted by DiscoverX (formerly Ambit; San Diego, Calif.). The percentage inhibition produced by incubation with a test compound may be calculated relative to the non-inhibited control.

Data set [3] addresses T1, p38 MAPKα. The experiment in a line: p38 MAPKα enzyme inhibition (Method 2), FRET Z-LYTE. The format is biochemical. The method, then:
(§3) The enzyme inhibitory activities of compounds disclosed herein are determined by FRET using synthetic peptides labelled with both donor and acceptor fluorophores (Z-LYTE, Invitrogen Ltd., Paisley, UK).
The inhibitory activities of test compounds against the p38 MAPKα isoform (MAPK14: Invitrogen), are evaluated indirectly by determining the level of activation/phosphorylation of the down-stream molecule, MAPKAP-K2. The p38 MAPKα protein (80 ng/mL, 2.5 μL) is mixed with the test compound (2.5 μL of either 4 μg/mL, 0.4 μg/mL, 0.04 μg/mL or 0.004 μg/mL) for 2 hr at RT. […] The mixture is incubated for 1 hr at RT. Development reagent (protease, 5 μL) is added for 1 hr prior to detection in a fluorescence microplate reader (Varioskan® Flash, ThermoFisher Scientific).
This method follows the same steps as Method 1 above, but utilises a higher concentration of the p38 MAPKα protein (2.5 μL of 200 ng/mL protein instead of 2.5 μL of 80 ng/mL protein) for mixing with the test compound.
(§4) In all cases, the site-specific protease cleaves non-phosphorylated peptide only and eliminates the FRET signal. Phosphorylation levels of each reaction are calculated using the ratio of coumarin emission (donor) over fluorescein emission (acceptor), for which high ratios indicate high phosphorylation and low ratios indicate low phosphorylation levels.

Data set [4] addresses T2, GSK3α (Homo sapiens, UniProt P49840).
T2 construct: purchased Invitrogen
Kind of data set: GSK3α enzyme inhibition (Method 2), FRET Z-LYTE. The format is biochemical. The method, then:
as §3
The inhibitory activities of compounds of the invention against the GSK 3α enzyme isoform (Invitrogen), are evaluated by determining the level of activation/phosphorylation of the target peptide. The GSK3-α protein (500 ng/mL, 2.5 μL) is mixed with the test compound (2.5 μL at either 4 μg/mL, 0.4 μg/mL, 0.04 μg/mL, or 0.004 μg/mL) for 2 hr at RT. The FRET peptide (8 μM, 2.5 μL), which is a phosphorylation target for GSK3α, and ATP (40 μM, 2.5 μL) are then added to the enzyme/compound mixture and the resulting mixture incubated for 1 hr. Development reagent (protease, 5 μL) is added for 1 hr prior to detection in a fluorescence microplate reader (Varioskan® Flash, ThermoFisher Scientific).
as §4
This method follows the same steps as Method 1 above, but utilises a shorter period of mixing of the test compound (105 minutes instead of 2 hours) with the GSK3-α protein.

The target in data set [5] is T3, Syk (Homo sapiens, UniProt P43405).
T3 construct: purchased Invitrogen
The experiment in a line: KINOMEscan dissociation constant, Syk. The class given is binding. Here is the method:
as §2

In data set [6] the target is T3, Syk. The experiment in a line: Syk enzyme inhibition, FRET Z-LYTE. The class given is biochemical. Here is the method:
as §3
(§5) The inhibitory activities of compounds of the invention against c-Src and Syk enzymes (Invitrogen), are evaluated in a similar fashion to that described hereinabove. The relevant enzyme (3000 ng/mL or 2000 ng/mL respectively, 2.5 μL) is incubated with the test compound (either 4 μg/mL, 0.4 μg/mL, 0.04 μg/mL, or 0.004 μg/mL, 2.5 μL each) for 2 hr at RT. The FRET peptides (8 μM, 2.5 μL), and appropriate ATP solutions (2.5 μL, 800 μM for c-Src, and 60 μM ATP for Syk) are then added to the enzymes/compound mixtures and incubated for 1 hr. Development reagent (protease, 5 μL) is added for 1 hr prior to detection in a fluorescence microplate reader (Varioskan® Flash, ThermoFisher Scientific).
as §4

In data set [7] the test system is PBMCs. The experiment in a line: IL-2 release in CD3/CD28 stimulated PBMC cells. The format is cell-based. The conditions noted are these: Homo sapiens, read-out: IC50 Values for Inhibition of Cytokine Release PBMCs IL-2. Here is the method: as §1
Data set [8] is described as follows: Hydrolytic stability study. The format is physicochemical. The following applies: DMSO/water (3:1), 1 mg/mL, experiment in which Example 2 was tested. The method, then: Chemical stability of compounds of the invention was assessed in a mixture of DMSO and water (3:1) at a test compound concentration of 1 mg/mL
General HPLC Procedure • Agilent, Waters X-Select C18, 2.5 μm, 4.6×30 mm column, 4 min method, 5-95% • MeCN/water (0.1% formic acid). • Flow rate 2.5 ml/min. • Column Oven Temperature 40° C. • Detection 254 nm.
Sample Preparation • A 1.0 mg sample of test compound was dissolved in 1 mL of DMSO/water (3:1) and the resulting mixture was stirred at rt overnight.
Recording Stability • A 50 μL aliquot of the test solution was removed and analysed in duplicate by 5 μL HPLC injections. The peak area for the test compound (taken to be 100% product, 0% degradation) was recorded following manual integration of the corresponding UV trace. The area retention time was also recorded. • The test solution was heated to 60° C. internal temperature (65° C. block temperature), with stirring, and timing commenced once the target temperature had been reached. After 5 and 24 h, samples were removed and analysed by HPLC (5 μL injections). In all cases, 5 μL injections were used and the samples analysed in duplicate. • The peak areas for the test compounds were recorded at both subsequent timepoints and the % decomposition calculated from the % change in peak area over time.

In data set [9] the target is T4, Lck (Homo sapiens, UniProt P06239).
T4 construct: purchased DiscoveRx Corporation (LeadHunter Discover Services, KINOMEscan)
T4 sequence (P06239 whole entry): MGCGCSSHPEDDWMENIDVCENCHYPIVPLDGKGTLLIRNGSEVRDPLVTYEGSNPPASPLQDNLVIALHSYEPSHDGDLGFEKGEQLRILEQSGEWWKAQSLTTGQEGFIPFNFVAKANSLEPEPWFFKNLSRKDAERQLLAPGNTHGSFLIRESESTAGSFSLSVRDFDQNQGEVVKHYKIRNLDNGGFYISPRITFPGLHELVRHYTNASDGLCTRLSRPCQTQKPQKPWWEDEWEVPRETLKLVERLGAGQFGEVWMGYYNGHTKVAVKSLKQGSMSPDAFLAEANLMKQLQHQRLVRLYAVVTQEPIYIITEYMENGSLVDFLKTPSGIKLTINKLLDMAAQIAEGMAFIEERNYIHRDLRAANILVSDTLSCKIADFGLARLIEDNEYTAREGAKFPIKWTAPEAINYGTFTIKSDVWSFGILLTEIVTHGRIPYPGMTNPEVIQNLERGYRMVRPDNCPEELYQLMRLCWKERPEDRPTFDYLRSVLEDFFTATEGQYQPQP
The experiment in a line: KINOMEscan dissociation constant, Lck. The class given is binding. Here is the method:
as §2

The test system of data set [10] is PBMCs. Kind of data set: LPS-induced IL-8 release in PBMC cells. The class given is cell-based. The following applies: Homo sapiens, LPS-stimulated PBMCs, read-out: IC50 Values for Inhibition of Cytokine Release PBMCs IL-8. In short, it runs like this: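 Healthy-donor PBMCs isolated by density gradient were pretreated with compound for 2 h, then stimulated with 1 ng/mL LPS (E. coli 0111:B4) for 24 h at 37° C., 5% CO2. IL-8 and TNFα in supernatants measured by sandwich ELISA.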

In data set [11] the test system is HT29 cells. Kind of data set: IL-1β-induced IL-8 release in HT29 cells. The format is cell-based. The following applies: Homo sapiens, HT-29; IL-1β-stimulated HT29 cells; read-out: IC50 Values for Inhibition of Cytokine Release HT29 cells IL-8. The method, then:
HT29 cells, a human colon adenocarcinoma cell line, are plated in a 96 well plate (24 hrs) and pre-treated with compounds at the desired concentration for 2 hours before addition of 5 ng/mL of IL-1β (Abcam) for 24 hours. Supernatants are harvested for IL-8 quantification by Sandwich ELISA (Duo-set, R&D System). The IC50 is determined from the dose response curve.

Data set [12] concerns the target T5, c-Src (Homo sapiens, UniProt P12931).
T5 construct: purchased Invitrogen
The experiment in a line: c-Src enzyme inhibition, FRET Z-LYTE. The format is biochemical. The method, then:
as §3, §5, §4

T1 sequence (Q16539 whole entry): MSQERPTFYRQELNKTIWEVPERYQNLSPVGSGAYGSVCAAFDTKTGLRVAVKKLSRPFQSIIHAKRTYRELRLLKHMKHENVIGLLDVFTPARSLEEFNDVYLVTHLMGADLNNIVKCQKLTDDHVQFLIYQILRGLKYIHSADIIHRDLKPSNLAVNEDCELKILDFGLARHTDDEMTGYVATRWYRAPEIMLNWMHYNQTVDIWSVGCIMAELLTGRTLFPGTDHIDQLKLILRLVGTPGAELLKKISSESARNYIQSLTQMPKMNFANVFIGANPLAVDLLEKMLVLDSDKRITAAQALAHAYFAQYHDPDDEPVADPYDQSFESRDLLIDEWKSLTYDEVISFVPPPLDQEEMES
T2 sequence (P49840 whole entry): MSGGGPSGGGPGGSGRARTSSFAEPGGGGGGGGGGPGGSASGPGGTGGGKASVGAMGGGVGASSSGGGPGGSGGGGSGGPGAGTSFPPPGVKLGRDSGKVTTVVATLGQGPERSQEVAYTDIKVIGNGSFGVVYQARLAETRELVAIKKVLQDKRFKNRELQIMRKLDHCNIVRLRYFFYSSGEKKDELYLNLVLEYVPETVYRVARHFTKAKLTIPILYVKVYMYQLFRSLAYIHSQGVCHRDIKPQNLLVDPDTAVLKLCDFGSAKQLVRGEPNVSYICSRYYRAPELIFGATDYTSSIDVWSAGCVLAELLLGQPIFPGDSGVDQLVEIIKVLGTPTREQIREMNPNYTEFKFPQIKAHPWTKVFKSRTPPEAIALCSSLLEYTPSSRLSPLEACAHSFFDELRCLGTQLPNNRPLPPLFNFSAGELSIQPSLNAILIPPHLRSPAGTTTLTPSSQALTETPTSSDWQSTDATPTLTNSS
T5 sequence (P12931 whole entry): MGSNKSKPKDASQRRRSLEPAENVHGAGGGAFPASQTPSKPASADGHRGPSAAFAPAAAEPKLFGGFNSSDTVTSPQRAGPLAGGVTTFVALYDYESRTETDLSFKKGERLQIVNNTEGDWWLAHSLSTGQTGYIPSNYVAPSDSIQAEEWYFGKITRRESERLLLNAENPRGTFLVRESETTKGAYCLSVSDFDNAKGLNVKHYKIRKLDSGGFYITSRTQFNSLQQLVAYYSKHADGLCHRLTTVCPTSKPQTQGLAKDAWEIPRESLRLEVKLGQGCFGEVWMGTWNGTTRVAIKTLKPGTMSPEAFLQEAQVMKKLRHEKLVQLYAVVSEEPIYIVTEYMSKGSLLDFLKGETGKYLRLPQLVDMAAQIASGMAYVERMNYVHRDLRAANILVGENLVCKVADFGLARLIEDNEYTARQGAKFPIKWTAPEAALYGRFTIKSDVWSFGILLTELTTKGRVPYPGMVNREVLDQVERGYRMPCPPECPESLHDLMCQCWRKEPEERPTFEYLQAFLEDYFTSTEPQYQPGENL

For the molecule `COCCOCCOCCOc1cc(Nc2ncc3cc(-c4cc(C(=O)Nc5cc(C(C)(C)C)cc(NS(C)(=O)=O)c5OC)ccc4C)ccc3n2)cc(OC)c1` [Example 2, N-(5-(tert-Butyl)-2-methoxy-3-(methylsulfonamido)phenyl)-3-(2-((3-methoxy-5-(2-(2-(2-methoxyethoxy)ethoxy)ethoxy)phenyl)amino)quinazolin-6-yl)-4-methylbenzamide], the half-maximal inhibitory concentration (IC50) is 0.0533 µM in data set [1]; 0.032 µM in [3]; greater than 12.5 µM in data set [4]; greater than 1.25 µM in [6]; 0.126 µM in [7]; 0.026 µM in [10]. The figures for the IC50 in data set [11] and in data set [12] were 0.0787 µM and 0.027 µM, respectively. The equilibrium dissociation constant (Kd) in [2] was determined as 0.015 µM; in data set [5], 0.068 µM; in data set [9] it was 0.013 µM. Further, the “% Parent Remaining” value in data set [8] (60° C., 300 min) turned out to be 104.2%; in data set [8] (60° C., 1440 min), 102.9%; in data set [8] (time 0 min), 100%.

Values taken from patent publication US20170209445A1, “KINASE INHIBITORS” (Respivert Limited, priority 2014, published 2017).
